Experimental data as given in patent publication US11780845B2 (Relay Therapeutics, Inc., priority 2019, dated 2023).

Tested on: SNU-16
Test: Cell SNU-16 assay
Type: cell-based
Details: SNU-16 cells

Row | IC50 | SMILES
1 | ≤ 0.1 µM | C#Cc1ccc(-c2c(-c3ccc(Oc4nccc(C)n4)c(F)c3)c3c(N)ncnc3n2C(C)C)c(C)n1 (atropisomer, axis not shown) [Example 1258]
2 | ≤ 0.1 µM | C#Cc1ccc(-c2c(-c3ccc(Oc4nccc(C)n4)c(F)c3)c3c(N)ncnc3n2C(C)C)c(C)n1 (atropisomer, axis not shown) [Example 1259]

Molecular target: FGFR2 (Homo sapiens (Human), UniProt P21802)
Test: Biochemical FGFR2 Caliper assay
Details: not given

FGFR2, sequence (P21802 22-821): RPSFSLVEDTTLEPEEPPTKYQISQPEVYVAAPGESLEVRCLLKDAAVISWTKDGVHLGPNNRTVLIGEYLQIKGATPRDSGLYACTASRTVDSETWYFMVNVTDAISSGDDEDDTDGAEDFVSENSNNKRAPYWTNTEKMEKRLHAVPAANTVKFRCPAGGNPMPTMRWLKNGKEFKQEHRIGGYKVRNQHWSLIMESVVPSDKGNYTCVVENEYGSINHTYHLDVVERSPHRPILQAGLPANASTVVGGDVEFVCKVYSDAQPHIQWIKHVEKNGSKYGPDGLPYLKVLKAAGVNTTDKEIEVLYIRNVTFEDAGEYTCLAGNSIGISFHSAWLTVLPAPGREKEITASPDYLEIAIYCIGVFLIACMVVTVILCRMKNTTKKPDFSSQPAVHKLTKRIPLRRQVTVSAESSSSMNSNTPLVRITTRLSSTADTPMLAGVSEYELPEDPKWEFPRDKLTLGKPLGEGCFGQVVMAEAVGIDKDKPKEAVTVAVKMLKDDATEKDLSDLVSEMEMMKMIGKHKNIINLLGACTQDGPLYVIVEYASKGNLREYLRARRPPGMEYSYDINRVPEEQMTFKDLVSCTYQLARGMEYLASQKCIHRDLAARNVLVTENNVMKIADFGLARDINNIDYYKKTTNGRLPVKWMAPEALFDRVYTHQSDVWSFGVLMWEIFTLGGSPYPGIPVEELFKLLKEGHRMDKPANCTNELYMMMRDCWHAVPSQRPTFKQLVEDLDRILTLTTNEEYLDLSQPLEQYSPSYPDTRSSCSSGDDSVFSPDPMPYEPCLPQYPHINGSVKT

Row | SMILES | IC50
3 | C=C(C)C(=O)Nc1ccc(-c2c(C3=CCN(c4ccccc4)CC3)c3c(N)ncnc3n2C)cc1 [Example 1216] | 1 to 100 µM
4 | C=CC(=O)Nc1ccc(-c2c(-c3ccc(Oc4ccccc4)cc3)c3c(C)ncnc3n2C(C)C)cc1 [Example 1218] | 1 to 100 µM
5 | C=CC(=O)Nc1ccc(-c2c(-c3ccc(Oc4cccc(C)n4)cc3)c3c(C)ncnc3n2C)cc1 [Example 1220] | < 0.1 µM
6 | C=C(C)C(=O)Nc1ccc(-c2c(C3=CCC(c4nc(C)no4)CC3)c3c(N)ncnc3n2C)cc1 (stereo not drawn) [Example 1222] | 1 to 100 µM
7 | C=C(C)C(=O)Nc1ccc(-c2c(-c3ccc(-c4coc(C)n4)cc3)c3c(N)ncnc3n2C)cc1 [Example 1224] | 0.25 to 1 µM
8 | C=CC(=O)Nc1ccc(-c2c(-c3ccc(Oc4ccccc4)cc3)c3c(C)ncnc3n2C)cc1 [Example 1225] | 0.25 to 1 µM
9 | C=C(C)C(=O)Nc1ccc(-c2c(-c3ccc(-n4cc(C(F)(F)F)cn4)cc3)c3c(N)ncnc3n2C)cc1 [Example 1226] | 1 to 100 µM
10 | C=C(C)C(=O)Nc1ccc(-c2c(C3=CCC(c4ccccc4)CC3)c3c(N)ncnc3n2C)cc1 (stereo not drawn) [Example 1227] | 1 to 100 µM
11 | C=C(C)C(=O)Nc1ccc(-c2c(-c3sc4ccccc4c3C)c3c(N)ncnc3n2C)cc1 [Example 1247] | 1 to 100 µM
12 | C=CC(=O)Nc1ccc(-c2c(-c3ccccc3)c3c(C)ncnc3n2C)cc1 [Example 1248] | 1 to 100 µM
13 | C=CC(=O)Nc1ccc(-c2[nH]c3ncnc(C)c3c2-c2cc3ccccc3s2)cc1 [Example 1256] | 1 to 100 µM
14 | C=C(C)C(=O)Nc1ccc(-c2c(-c3ccc(-c4noc(C5CC5)n4)c([N+](=O)[O-])c3)c3c(N)ncnc3n2C)cc1 [Example 1317] | 1 to 100 µM
15 | C=C(C)C(=O)Nc1ccc(-c2c(-c3ccc(-c4noc(C5CC5)n4)c(N)c3)c3c(N)ncnc3n2C)cc1 [Example 1318] | 1 to 100 µM
16 | C=C(F)C(=O)Nc1ccc(-c2c(-c3ccc(-c4noc(C5CC5)n4)cc3)c3c(N)ncnc3n2C)cc1 [Example 1326] | 0.1 to 0.25 µM
17 | C=CC(=O)Nc1ccc(-c2c(-c3ccc(-c4noc(C5CC5)n4)cc3)c3c(N)ncnc3n2C)cc1 [Example 1335] | < 0.1 µM
18 | [2H]C#Cc1cc2c(cn1)-c1c(-c3ccc(Oc4nccc(C)n4)c(F)c3)c3c(N)ncnc3n1CCC2 [Example 1449] | < 0.1 µM
19 | C#Cc1cc(OC)c(-c2c(-c3ncc(Oc4nccc(C)n4)cc3F)c3c(N)ncnc3n2C)c(C)n1 [Example 1451] | < 0.1 µM

Now from value to compound:

Row | IC50 | SMILES
20 | 0.25 to 1 µM | C=C(C)C(=O)Nc1ccc(-c2c(-c3cc(-c4ccccc4)cs3)c3c(N)ncnc3n2C)cc1 [Example 1221]
21 | 1 to 100 µM | C=CC(=O)Nc1ccc(-c2c(-c3cc4ccccc4s3)c3c(C)ncnc3n2C)cc1 [Example 1223]
22 | 1 to 100 µM | C=C(C)C(=O)Nc1ccc(-c2c(-c3ccc(-c4nc(C)no4)cc3)c3c(N)ncnc3n2C)cc1 [Example 1244]
23 | 1 to 100 µM | C=CC(=O)Nc1ccc(-c2[nH]c3ncnc(C)c3c2-c2ccc(Oc3ccccc3)cc2)cc1 [Example 1254]
24 | 0.25 to 1 µM | C=C(C)C(=O)Nc1ccc(-c2c(-c3ccc(-c4noc(C5CC5)n4)cc3)c3c(N)ncnc3n2C)cc1 [Example 1333]
25 | 0.1 to 0.25 µM | C=C(C)C(=O)Nc1ccc(-c2c(-c3ccc(-c4noc(C5CC5)n4)cc3)c3c(N)ncnc3n2C)cn1 [Example 1362]
26 | < 0.1 µM | C#Cc1cc2c(cn1)-c1c(C3=CC[C@@H](C(=O)N4CCC[C@H]4C#N)CC3)c3c(N)ncnc3n1CCC2 [Example 1444]
27 | 0.25 to 1 µM | C#Cc1cc2c(cn1)-c1c(C3=CC[C@H](C(=O)N4CCC[C@H]4C#N)CC3)c3c(N)ncnc3n1CCC2 [Example 1496]
